Reference: patent publication US6242450A, “5-HT1F antagonists” (Eli Lilly and Company, priority 1999, dated 2001)

Test system: male Wister rats
Experiment: Social interaction test of anxiety
Type: in vivo
Conditions: rat, 20 mg/kg intraperitoneal, 1 hour before test, 5 minutes observation, significance at p<0.01
Description: The procedure for this assay is summarized below.
All experiments were performed on male Wister rats (Harlan laboratories, 275-300 gm). The rats were individually housed in a temperatu,re controlled room (72° F.) on a 12 hour day/night cycle. The rats were provided food and water ad libitum.
Approximately 40 mg of the test compound was weighed into a 20 mL glass vial. To this solid were added 80 μL of lactic acid (85%). The mixture was sonicated for 2 minutes and then 4 mL of distilled water was added in 1 mL increments. Sonication of this mixture was continued until all of the solid had dissolved. Following sonication, the pH of the mixture was raised by the addition of dilute aqueous sodium hydroxide until the mixture reached a pH of about 5.5.
Each rat was weighed and the test compound administered by intraperitoneal injection at 20 mg/kg of body weight. […]
Experimental anxiety was measured by a social interaction test. […] A video camera was fixed above the social interaction box and all behavioral tests were recorded. […] The amount of time that the rat which received test compound spent interacting (i.e. grooming, sniffing, crawling upon) with the other rat was recorded. […]
Social interaction data was analyzed as total interaction time in seconds and the raw scores were compared between baseline and treatment. […]

O[C@H](COc1ccc2ccccc2c1)CN1CCC(O)(c2cnc3ccccc3c2)CC1 [Example 37, 1-((2S)-hydroxy-3-(naphth-2-yloxy)prop-1-yl)-4-hydroxy-4-(quinolin-3-yl)piperidine]
social interaction time as compared to baseline: significantly increase social interaction time as compared to baseline
